Source: US8563580B2, “Flavivirus inhibitors and methods for their use” (Georgetown University, priority 2008, dated 2013)

These molecules were tested on WNV protease (assay: High Throughput Screen (HTS) protease assay). Conditions: 100 nl of 5 mg/ml compound in DMSO per 30.1 μl well; substrate Boc-Gly-Lys-Arg-AMC 50 μM; DMSO controls = 100% activity.
Type: biochemical, West Nile virus (EG101 strain)
Protocol: Procedures for expression and purification of WNV (EG101 strain) were similar to those described elsewhere by Mueller et al., Int. J. Biochem. Cell. Biol., 39: 606-14 (2007). Briefly, E. coli Top10 F′ cells (Invitrogen, Carlsbad, Calif.) were transformed with the protease expression plasmid. Cells were grown at 37° C. until the OD600 was ˜0.5. Cells were then induced with isopropyl-1-thio-β-D-galactopyranoside (American Bioanalytical, Natick, Mass.) (0.5 mM), and incubated for 4 h at 37° C. Cells were harvested by centrifugation (5000×g) for 15 min at 4° C., washed once with a buffer containing 50 mM Tris-HCl, pH 7.5, and 200 mM NaCl, centrifuged at 5000×g for 15 min at 4° C., and stored at -80° C. until used.
Proteases were purified by suspending bacterial pellets in 50 mM Hepes, pH 7.0, 500 mM NaCl, (buffer A) with 0.05 mg/ml lysozyme. Cells were incubated for 30 min on ice after addition of 10% stock solution of Triton X-100 (final concentration of 0.5%). Cells were disrupted by sonication for 2 min and the soluble fraction was collected after centrifugation (15,000×g) for 30 min at 4° C. The soluble fraction was incubated for 1 h at 4° C. with Talon resin (BD Bioscience, San Jose, Calif.) which was pre-equilibrated in buffer A. The affinity resin was centrifuged at (400×g) for 10 min at 4° C., washed three times with buffer A, and packed into a column. Washing of the column was continued with the buffer A containing 10 mM imidazole, followed by elution of the protease with buffer A containing 150 mM imidazole. The protease was concentrated and further purified by Sephadex G-75 gel filtration chromatography. The purified protease fractions were pooled and dialyzed against a buffer containing 50 mM Tris-HCl pH 7.5 and 300 mM NaCl (4×1 L). Aliquots (100 μl) were frozen at −80° C.
The protease assay (100 μl) described by Mueller et al., Int. J. Biochem. Cell. Biol. 39: 606-14 (2007) was adapted for a 384-well plate format (30.1 μl). Microtiter plates were loaded sequentially with 14 μl of the reaction buffer containing 200 mM Tris-HCl, pH 9.5, and 30% glycerol (TG buffer) using an automated Wellmate (Matrix, Hudson, N.H.) and 6 μl of WNV protease (0.05 μM) (as prepared above) in TG buffer containing 15 mM NaCl (3 mM final concentration). Plates were then centrifuged at 1000×g for 3 min at room temperature to mix samples and pool liquids at the bottom of the wells. Inhibitor compounds (100 nl of 5 mg/ml in dimethyl sulfoxide; DMSO) were added to each well in duplicate by a pin-transfer mechanism of a robotic delivery system. The final inhibitor concentrations in the assays varied due to different molecular weights of the compounds from the libraries that were screened. Plates were incubated at room temperature to allow for formation of protease/inhibitor complexes. The fluorogenic substrate, t-butyl-oxycarbonyl(Boc)-Gly-Lys-Arg-7-amino-4-methyl coumarin (AMC) (10 μl in TG buffer; 50 μM final concentration in the reaction mixture), was added using the Wellmate, and the plates were centrifuged for 3 min at 1000×g and incubated at room temperature for 15 min. Fluorescence was measured at excitation and emission wavelengths of 385 nm and 465 nm, respectively, on a Perkin-Elmer (Waltham, Mass.) spectrofluorometer. To validate the assay conditions, aprotinin (bovine pancreatic trypsin inhibitor, BPTI) was used as a positive control. Assay mixtures containing DMSO were used as negative controls. The average of fluorescence values in duplicate wells for a given compound was used to determine the percent activity by taking the values obtained with DMSO controls as 100%. Compounds 1-11, 18-32, and 37-101 above were identified. […] Compounds 12-17 are compounds related to those identified in the HTS screen that also show significant WNV protease inhibition, i.e., >95%.

Point of comparison: Oc1c(C(Nc2ccccn2)c2ccccc2)ccc2cccnc12 (stereo not drawn) [Compound 8], “% Inhibition (reduction in protease activity)” value 75%. Against it:
- COc1ccc(C(NC(=O)c2ccccc2)c2ccc3cccnc3c2O)cc1 (stereo not drawn) [Compound 1] — higher, 86%
- O=C(NC(c1ccccc1Cl)c1ccc2cccnc2c1O)c1ccccc1 (stereo not drawn) [Compound 2] — higher, 85%
- COC(=O)c1ccc(C(Nc2ccccn2)c2ccc3ccc(C)nc3c2O)cc1 (stereo not drawn) [Compound 3] — higher, 84.5%
- Cc1ccc2ccc(C(Nc3ccccn3)c3ccc4c(c3)OCO4)c(O)c2n1 (stereo not drawn) [Compound 4] — higher, 83%
- C=CCOc1cccc(C(Nc2cccc(C)n2)c2ccc3cccnc3c2O)c1 (stereo not drawn) [Compound 5] — higher, 81%
- CN(C)c1ccc(C(Nc2nccs2)c2ccc3cccnc3c2O)cc1 (stereo not drawn) [Compound 6] — higher, 76%
- CCCCC(=O)NC(c1cccs1)c1cc(Cl)c2cccnc2c1O (stereo not drawn) [Compound 7] — higher, 76%
- Oc1c(C(Nc2nccs2)c2ccc(F)cc2)ccc2cccnc12 (stereo not drawn) [Compound 9] — lower, 74%
- Cc1cc(NC(c2cccc(Br)c2)c2ccc3cccnc3c2O)no1 (stereo not drawn) [Compound 10] — lower, 70%
- Oc1c(C(c2ccc(Cl)cc2)N2CCOCC2)cc(Cl)c2cccnc12 (stereo not drawn) [Compound 11] — lower, 65%
- CCN1C(=O)/C(=C/c2ccc(NC(=O)c3ccccc3Br)cc2)SC1=S [Compound 18] — higher, 83.5%
- CC(/C=C1\SC(=S)N(CC(=O)Nc2ccccn2)C1=O)=C\c1ccccc1 [Compound 19] — higher, 76.5%
- O=C(CCCN1C(=O)/C(=C/C=C/c2ccccc2)SC1=S)Nc1ccccn1 [Compound 21] — lower, 74%
- CC(/C=C1\SC(=S)N(CC(=O)Nc2cccnc2)C1=O)=C\c1ccccc1 [Compound 22] — lower, 72.5%
- CC(/C=C1\SC(=S)N(CCCC(=O)Nc2cccnc2)C1=O)=C\c1ccccc1 [Compound 23] — lower, 72%
- CC1=NC(NC(=O)CCN2C(=O)/C(=C/C(C)=C/c3ccccc3)SC2=S)[SH]=C1 (stereo not drawn) [Compound 24] — lower, 70%
- CC(/C=C1\SC(=S)N(CCC(=O)Nc2ccccc2O)C1=O)=C\c1ccccc1 [Compound 25] — lower, 67%
- O=C1/C(=C/C2C=CC=[SH]2)SC(=S)N1CC(=O)N(Cc1ccccc1)c1ccccc1 (stereo not drawn) [Compound 26] — lower, 67%
- O=C(CCCN1C(=O)/C(=C/C=C/c2ccccc2)SC1=S)Nc1cccc(F)c1 [Compound 27] — lower, 66%
- O=C(CCCN1C(=O)/C(=C/C=C/c2ccccc2)SC1=S)Nc1cccc(O)c1 [Compound 28] — lower, 63%
- Cc1cccc(N2C(=O)/C(=C/c3ccc(O)c(O)c3)SC2=S)c1C [Compound 29] — lower, 58%
- O=C1NC(=S)S/C1=C\c1ccc(-c2cccc(C(F)(F)F)c2)o1 [Compound 30] — lower, 53%
- CC(C)N1C(=O)/C(=C2/C(=O)N(CC(=O)O)c3ccc(Br)cc32)SC1=S [Compound 31] — lower, 53%
- COC(=O)/C=C1\S/C(=N/c2ccc(Cl)cc2)N(c2ccc(Cl)cc2)C1=O [Compound 32] — lower, 59%
- Clc1ccc(CN2COc3c(cc(Cl)c4cccnc34)C2)cc1 [Compound 37] — lower, 71%
- CC(Oc1cc(Cl)ccc1Cl)C(=O)N1CCc2ccccc21 (stereo not drawn) [Compound 38] — lower, 58%
- COc1ccc(OCC(=O)OCCN2C(=O)c3ccccc3C2=O)cc1 [Compound 39] — lower, 57%
- O=C(c1conc1-c1ccccc1)n1cccc1 [Compound 40] — lower, 56%
- Cn1c(=O)n(CCOc2ccc(Cl)cc2)c2ccccc21 [Compound 41] — lower, 56%
- O=C1c2ccccc2C(O)(Cc2ccccc2)N1c1ccc2c(c1)OCO2 (stereo not drawn) [Compound 42] — lower, 54%
- O=C1C(c2ccccc2)c2ccccc2N1Cc1ccccc1 (stereo not drawn) [Compound 43] — lower, 54%
- O=C1Nc2ccccc2/C1=C/c1ccccc1N1CCOCC1 [Compound 44] — lower, 52%
- Cc1ccc(-c2csc(-n3sc4ccccc4c3=O)n2)cc1 [Compound 45] — lower, 52%
- CCOC(=O)C1C(=O)N(C(=O)c2ccc(OC)cc2)CC1c1ccccc1 (stereo not drawn) [Compound 46] — lower, 50%
- O=C(COc1cccc2ccccc12)N1CCc2ccccc2C1 [Compound 47] — higher, 83%
- O=c1[nH]c2ccccc2c(O)c1-c1nc2ccccc2s1 [Compound 48] — lower, 67%
- COC(=O)c1ccc2c(c1)N(Cc1nc(-c3ccccc3C)oc1C)C(=O)C1CCCN21 (stereo not drawn) [Compound 49] — lower, 58%
- O=C1N=c2ccc(S(=O)(=O)N(CCc3ccccc3)Cc3ccccc3)cc2=NC1=O [Compound 50] — lower, 55%
- C=CCn1c(Cc2ccccc2)nc2c(cnn2-c2ccccc2)c1=O [Compound 52] — lower, 52%
- COc1ccc(Cc2c(O)nc(SC)n(-c3ccccc3)c2=O)cc1 [Compound 55] — lower, 51%
- C=CCn1c(SCc2ccc(C(=O)OC)cc2)nc2ccccc2c1=O [Compound 56] — lower, 51%
- O=C(CC1Sc2ncnn2C1=O)Nc1ccc(Br)cc1 (stereo not drawn) [Compound 57] — lower, 58%
- O=C(Nc1ccc(F)cc1F)c1ccc2c(c1)C(=O)N(Cc1ccco1)C2=O [Compound 58] — lower, 55%
- CCOC(=O)c1ccc(NC(=O)Cn2ncc3c4ccccc4n(Cc4ccccc4)c3c2=O)cc1 [Compound 59] — lower, 53%
- O=C(Cn1cnc2ccccc2c1=O)Nc1ccc(Oc2ccccc2)cc1 [Compound 60] — lower, 51%
- CCOc1cc2c(cc1OCC)C1C(C(=O)NCCCN3CCN(C)CC3)c3ccccc3C(=O)N1CC2 (stereo not drawn) [Compound 61] — lower, 51%
- CC1CCN(S(=O)(=O)c2ccc(NC(=O)/C=C/c3ccco3)cc2)CC1 [Compound 62] — lower, 72%
- COc1ccc(NC(=O)c2c(N)sc(-c3ccccc3)c2C)cc1 [Compound 63] — lower, 65%
- CCN(CC)S(=O)(=O)c1ccc2oc(C(=O)Nc3cccc(OC)c3)c(C)c2c1 [Compound 64] — lower, 65%
- CC(C)(C)C1CCC(C(=O)OCC(=O)Nc2ccc(C(N)=O)cc2)CC1 (stereo not drawn) [Compound 65] — lower, 63%
- CC(NC(=O)Cc1cccs1)C(c1cccs1)N1CCN(c2ccccc2)CC1 (stereo not drawn) [Compound 66] — lower, 62%
- COC(=O)c1cc2oc3ccccc3c2n1CC(=O)NCc1ccco1 [Compound 67] — lower, 61%
- Cc1ccc(NC(=O)C23C(=O)Oc4ccccc4C2C3(C)C(=O)c2ccccc2)cc1 (stereo not drawn) [Compound 68] — lower, 61%

Cc1ccnc(NC(c2ccccc2O)c2ccc3cccnc3c2O)c1 (stereo not drawn) [Compound 12] was tested, and the “% Inhibition (reduction in protease activity)” value was >95%.
In the case of Oc1c(C(Nc2nccs2)c2ccccc2)ccc2cccnc12 (stereo not drawn) [Compound 14], the “% Inhibition (reduction in protease activity)” value is reported as >95%.
For Cc1cccc(NC(c2ccccc2OCc2ccccc2)c2ccc3cccnc3c2O)n1 (stereo not drawn) [Compound 15], the “% Inhibition (reduction in protease activity)” value was >95%.
